Data as given in US20260206761A1, “HETEROARYL-TRIAZOLE COMPOUNDS AS PESTICIDES” (Bayer Aktiengesellschaft, priority 2019, published 2026).

Key:
Type in all cases: in vivo
[1] = test system: green peach aphid (Myzus persicae); assay: Myzus persicae spray test; conditions: 120 h, after 5 days; for mortality at 100 g/ha: application rate 100 g/ha; for mortality at 500 g/ha: application rate 500 g/ha
Experimental: Myzus persicae—Spray Test
Solvent: 78.0 parts by weight acetone • 1.5 parts by weight dimethylformamide
Emulsifier: alkylarylpolyglycol ether
To produce a suitable preparation of active compound, 1 part by weight of active compound is mixed with the stated amount of solvents and is diluted with water, containing an emulsifier concentration of 1000 ppm, to the desired concentration. Further test concentrations are prepared by dilution with emulsifier containing water.
Chinese cabbage (Brassica pekinensis) leaf disks infected with all instars of the green peach aphid (Myzus persicae), are sprayed with a preparation of the active ingredient of the desired concentration.
After 5 days mortality in % is determined. 100% means all aphids have been killed and 0% means none of the aphids have been killed.

[2] = test system: larvae of the banded cucumber beetle (Diabrotica balteata); assay: Diabrotica balteata spray test; conditions: 168 h, application rate 100 g/ha (=32 pg/well), after 7 days, read-out: activity (efficacy: seedlings grown)
Method in brief: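 Wheat seedlings, germinated 1 day on agar (5 seeds/well), sprayed with active compound in acetone/DMF diluted in water containing 1000 ppm emulsifier, then infested with 10-20 D. balteata larvae. Efficacy (%) scored after 7 days: 100% = seedlings grown as untreated uninfested control, 0% = no seedlings grown.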

[3] = test system: green peach aphid (Myzus persicae); assay: Myzus persicae oral test; conditions: 120 h, application rate 4 ppm, after 5 days
Method in brief: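 Acetone stock (1 pbw compound/100 pbw solvent) diluted in water; mixed with sugar-supplemented IPL41 medium; parafilm-sealed; mixed aphid population sucks through film; mortality % read at 5 d.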

[4] = test system: larvae of the southern green stink bug (Nezara viridula); assay: Nezara viridula spray test; conditions: 96 h, after 4 days; for mortality at 100 g/ha: application rate 100 g/ha; for mortality at 500 g/ha: application rate 500 g/ha
Method in brief: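 Compound in acetone/dimethylformamide, diluted in water with 1000 ppm alkylarylpolyglycol ether emulsifier, sprayed onto barley plants carrying stink bug larvae. Mortality (%) scored after 4 days, 100% meaning all insects killed.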

[5] = test system: adult engorged female ticks (Rhipicephalus microplus); assay: Rhipicephalus (Boophilus) microplus injection test; conditions: 168 h, egg deposition after 7 days, read-out: activity (efficacy: infertile eggs); for pest or weed control at 4 pg: application rate 4 pg/animal; for pest or weed control at 0.02 mg: application rate 20 μg/animal
Method in brief: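 Efficacy is scored from egg fertility, with 100% meaning every egg infertile and 0% every egg fertile. Five engorged females per test received 1 μL DMSO solution abdominally. Eggs of unclear fertility were kept until hatching, about 42 days.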

[6] = test system: adult unfed cat fleas (Ctenocephalides felis); assay: Ctenocephalides felis oral test; conditions: 48 h, read-out: activity (mortality)
Experimental: Ctenocephalides felis—Oral Test
Solvent: dimethyl sulfoxide
To produce a suitable preparation of active compound, 10 mg of active compound are dissolved in 0.5 mL solvent, and the concentrate is diluted with cattle blood to the desired concentration.
Approximately 20 adult unfed cat fleas (Ctenocephalides felis) are placed in flea chambers. The blood chamber, sealed with parafilm on the bottom, are filled with cattle blood supplied with compound solution and placed on the gauze covered top of the flea chamber, so that the fleas are able to suck the blood. The blood chamber is heated to 37° C. whereas the flea chamber is kept at room temperature.
After 2 days mortality in % is determined. 100% means all the fleas have been killed; 0% means none of the fleas have been killed.

[7] = test system: Aedes aegypti strain MONHEIM; assay: Aedes aegypti test (AEDSAE surface treatment & contact assay); conditions: 24 hours after contact, read-out: efficacy (mortality); for mortality at 4 mg/m2: surface concentration 4 mg/m^2, exposure 30 minutes
Experimental: Aedes aegypti Test (AEDSAE Surface Treatment & Contact Assay)
Solvent: Aceton+2000 ppm rapeseed oil methyl ester (RME)
In order to produce a sufficient, active ingredient containing solution it is necessary to solve the test compound in the solvent-mix (acetone at 2 mg/ml/RME 2000 ppm). This solution is pipetted onto a glazed tile and after evaporation of the acetone, adult mosquitoes of the species Aedes aegypti strain MONHEIM are placed onto the dried surface. The exposure time is 30 minutes. Mortality in percent (%) is determined 24 hours after contact of the insects to the treated surface. 100% mortality means that all tested insects are dead, whereas 0% means that no insect died.

[8] = test system: adult cat fleas (Ctenocephalides felis); assay: Ctenocephalides felis in-vitro contact test, adult cat flea; conditions: application rate 5 μg/cm^2 (=500 g/ha), after 48 hours, read-out: activity (efficacy: fleas dead or moribund)
Experimental: Ctenocephalides felis—In-Vitro Contact Tests Adult Cat Flea
9 mg compound is solved in 1 mL acetone and diluted with acetone to the desired concentration. 250 μL of the test solution is filled in 25 mL glass test tubes and homogeneously distributed on the inner walls by rotation and tilting on a shaking device (2 h at 30 rpm). With a compound concentration of 900 ppm, an inner surface of 44.7 cm^2 and a homogeneous distribution, a dose of […] is achieved.
After the solvent has evaporated, each test tube is filled with 5-10 adult cat fleas (Ctenocephalides felis), closed with a perforated lid and incubated in a lying position at room temperature and relative humidity. After 48 hours efficacy is determined. The fleas are patted on the ground of the tubes and are incubated on a heating plate at 45-50° C. for at most 5 minutes. Immotile or uncoordinated moving fleas, which are not able to escape the heat by climbing upwards, are marked as dead or moribund.
An efficacy of 100% means all fleas are dead or moribund; 0% means no fleas are dead or moribund.

[9] = test system: Rhipicephalus microplus larvae (strain Parkhurst, resistant against synthetic pyrethroids); assay: Rhipicephalus (Boophilus) microplus in-vitro contact test, larval cattle tick; conditions: after 48 hours, read-out: activity (efficacy: larvae dead or moribund); for pest or weed control at 100 g/ha: application rate 1 pg/cm^2 (=100 g/ha); for pest or weed control at 500 g/ha: application rate 5 pg/cm^2 (=500 g/ha)
Method in brief: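 Acetone solutions coated onto inner walls of glass tubes by rotation (900 ppm giving 5 μg/cm^2); after evaporation, 20-50 larvae added per tube and held at 27° C., 85% relative humidity. Efficacy read after 48 h from negative geotactic behaviour; 100% = all larvae dead or moribund.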

[10] = test system: fall armyworm larvae (Spodoptera frugiperda); assay: Spodoptera frugiperda spray test; conditions: 168 h, read-out: activity (mortality)
Method in brief: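 Compound in acetone/DMF, diluted in water with 1000 ppm alkylarylpolyglycol ether emulsifier, sprayed on maize leaf sections. Dried leaves infested with fall armyworm larvae; % mortality after 7 days (100% = all killed, 0% = none).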

[11] = test system: adult brown dog ticks (Rhipicephalus sanguineus); assay: Rhipicephalus sanguineus in-vitro contact test, adult brown dog ticks; conditions: after 48 hours, read-out: activity (efficacy: ticks dead or moribund); for pest or weed control at 100 g/ha: application rate 1 pg/cm^2 (=100 g/ha); for pest or weed control at 5 µg/cm2, 500 g/ha: application rate 5 μg/cm^2 (=500 g/ha)
Method in brief: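 Efficacy (%) reflects the fraction of adult ticks dead or moribund after 48 h of contact with a dried acetone film on tube walls at 5 μg/cm^2 (from 900 ppm). Moribund status was assessed by inability to climb away from heat at 45-50° C.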

SMILES	mortality at 100 g/ha [1]	pest or weed control at 100 g/ha [2]	mortality at 4 ppm [3]	mortality at 100 g/ha [4]	pest or weed control at 4 pg [5]	pest or weed control at 0.02 mg [5]	mortality at 100 ppm [6]	mortality at 4 mg/m2 [7]	pest or weed control at 5 µg/cm2 [8]	pest or weed control at 100 g/ha [9]	pest or weed control at 500 g/ha [9]	mortality at 100 g/ha [10]	mortality at 500 g/ha [4]	mortality at 500 g/ha [1]	pest or weed control at 100 g/ha [11]	pest or weed control at 5 µg/cm2, 500 g/ha [11]	mortality at 20 mg/m2 ([7]; surface concentration 20 mg/m^2, exposure 30 minutes)
CC(NC(=O)c1cc(Cl)cc(S(C)(=O)=O)c1)c1nc(I)nn1-c1ncccn1 (stereo not drawn) [I-41]	100%	100%	100%	100%													
CCS(=O)(=O)c1cc(C(=O)N[C@@H](C)c2ncnn2-c2ccc(Cl)cn2)cc(C(F)(F)F)c1 [II-45]		100%		100%	100%	100%	100%	80 to 100%	80%	100%	100%						
CC(NC(=O)c1cc(Cl)cc(S(C)(=O)=O)c1)c1nc(Cl)nn1-c1ccc(C#N)cn1 (stereo not drawn) [I-32]					100%	100%	100%		100%	100%	100%	100%					
COc1nc([C@H](C)NC(=O)c2cc(OC(F)(F)F)cc(S(=O)(=O)C3CC3)c2)n(-c2ncc(Cl)cn2)n1 [I-91]	90%	100%										100%	100%				
C[C@H](NC(=O)c1cc(F)cc(S(C)(=O)=O)c1)c1nc(C2CC2)nn1-c1ccc(C#N)cn1 [I-63]	90%	100%	100%	100%								100%					
C[C@H](NC(=O)c1cc(C(F)F)cc(S(C)(=O)=O)c1)c1nc(C2CC2)nn1-c1ncc(Cl)cn1 [I-67]	90%	100%	100%	100%								100%	100%	100%			
C[C@H](NC(=O)c1cc(Br)cc(C2CC2)c1)c1ncnn1-c1ccc(C#N)cn1 [II-59]		100%	100%		80%				100%	100%	100%	100%			100%	100%	
COc1nc([C@H](C)NC(=O)c2cc(C(F)F)cc(S(=O)(=O)C3CC3)c2)n(-c2ccc(Cl)cn2)n1 [I-94]	90%	100%										100%	100%				
COc1nc([C@H](C)NC(=O)c2cc(C(F)F)cc(C3CC3)c2)n(-c2ccc(C#N)cn2)n1 [I-70]									80%	100%	100%					80%	
C[C@H](NC(=O)c1cc(F)cc(S(C)(=O)=O)c1)c1nc(C2CC2)nn1-c1ncc(Cl)cn1 [I-66]	100%	100%	100%	100%								100%	100%	100%			
CC(NC(=O)c1cc(OC(F)(F)F)cc(C2CC2)c1)c1nc(I)nn1-c1ncccn1 (stereo not drawn) [I-43]	100%	100%	100%	100%						100%	100%	100%			100%	100%	
C[C@H](NC(=O)c1cc(C#N)cc(C2CC2)c1)c1ncnn1-c1ccc(C#N)cn1 [II-53]							100%	80 to 100%	100%	80%	80%	83%					80 to 100%
C[C@H](NC(=O)c1cc(I)cc(C2CC2)c1)c1ncnn1-c1ccc(C#N)cn1 [II-58]		100%			100%		100%		80%	100%	100%	100%			100%	100%	
CC(C)c1nc([C@H](C)NC(=O)c2cc(Cl)cc(S(C)(=O)=O)c2)n(-c2ccc(C#N)cn2)n1 [I-16]		80%	100%		100%	100%	100%			100%	100%	100%			100%	100%	
COc1nc([C@H](C)NC(=O)c2cc(Cl)cc(S(=O)(=O)C3CC3)c2)n(-c2ncc(Cl)cn2)n1 [I-79]	90%		100%	90%								100%	100%				
COc1nc([C@H](C)NC(=O)c2cc(Cl)cc(S(=O)(=O)C(F)(F)F)c2)n(-c2ccc(Cl)cn2)n1 [I-52]									90%			83%					
